This is an account of results in patent US6271238A, “Acetamide derivatives and protease inhibitors” (Nippon Kayaku Kabushiki Kaisha, priority 1996, dated 2001).

One assay addresses T1, rat chymase (Rattus norvegicus, UniProt P09650).
T1 construct: 50 g rat tongue was finely divided by scissors and a scalpel; from tissue; host or cells: rat tongue
T1 sequence (P09650 21-260): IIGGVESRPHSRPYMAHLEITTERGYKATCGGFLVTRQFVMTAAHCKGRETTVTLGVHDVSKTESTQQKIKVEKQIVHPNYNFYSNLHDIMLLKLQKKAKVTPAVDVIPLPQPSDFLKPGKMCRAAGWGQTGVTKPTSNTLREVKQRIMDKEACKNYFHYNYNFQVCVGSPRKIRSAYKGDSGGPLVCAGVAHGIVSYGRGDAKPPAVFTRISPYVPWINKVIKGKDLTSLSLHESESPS
Nature of the assay: Inhibitory activity on rat chymase (synthetic substrate). The class given is biochemical. The note with it: substrate succinyl leucyl leucyl valyl tyrosyl methylcoumarylamide; pH 8.0, 37° C., 15 min; read-out: Rat Chymase (IC50: nM), 50% inhibitory concentration. Here is the method: In the present invention, chymase was purified by the methods described in these literatures, and the present compounds were examined for inhibitory activity on chymase, inhibitory action on activation of mast cells and eosinophils, and pharmacological action in animals. Hereinafter, specific methods are described. […] 50 g rat tongue was finely divided by scissors and a scalpel, suspended in 0.1 M phosphate buffer (pH 8.0), and disrupted by a Polytron homogenizer for 5 minutes to prepare a crude chymase enzyme solution. […] The supernatant was applied to an octyl Sepharose 4B column (40×100 mm) previously equilibrated with 0.1 M phosphate buffer (pH 8.0) containing 2 M sodium chloride and 5% ammonium sulfate, and the protein was eluted with a linear concentration gradient of from 2 M to 0 M sodium chloride. […] (D) Measurement of inhibitory activity on chymase (a) Measurement using the synthetic substrate The synthetic chymase substrate was used for measurement of the inhibitory activity on the rat chymase as a subtrate, and the fluorescence of formed aminomethylcoumarin after reaction was measured by a spectrophotometer. […] The test was conducted several times. Chymase was prepared for each test in the manner described above. The compounds examined were compounds prepared in the above-described examples. […] Succinyl leucyl leucyl valyl tyrosyl methylcoumarylamide (for rat […] angiotensin I (for human and dog chymase)

The subject of a further assay is guinea pig eosinophils. Nature of the assay: Inhibitory action on eosinophils (release of active oxygen from guinea pig eosinophils). The class given is cell-based. The note with it: Cavia porcellus, Eosinophil, 5 min, PAF, luminol chemiluminescence for 5 minutes. On the procedure:
Inhibitory activity on eosinophil activation
(A) Preparation of eosinophils
Polymyxin B (produced by Sigma) was administered intraperitoneally into a guinea pig (Hartley, male, 6-week-old) at a dosage of 1 mg once every week for 6 to 8 weeks. After the final administration of polymyxin B. 50 ml of PBS (phosphate-buffered saline) was injected into the intraperitoneal cavity of the guinea pig, and cells were recovered. The cells were centrifuged at 800 rpm for 5 minutes and the abdomen infiltration cells were collected as precipitates and then suspended in 1 ml of 40% Ficoll (40% Ficoll (produced by Pharmacia), HBSS (Hanks' balanced salt solution) and layered on a Ficoll discontinuous density gradient (40 to 90%). It was centrifuged at 1500 rpm for 40 minutes, and the eosinophil fraction was recovered. In this operation, eosinophils of 99% or more purity were usually obtained. Further, the cells were washed twice with RPMI 1640 medium (10% BSA (bovine serum albumin available from Boehringer Mannheim), suspended again at a predetermined density, and used in the objective experiment.
(B) Inhibitory action on eosinophils (inhibitory action on release of active oxygen from guinea pig eosinophils)
The eosinophils (99% or more purity) obtained by the Ficoll density gradient method in (A) above were suspended at a cell density of 4×10^5 in a buffer solution (0.136 M sodium chloride, 2.7 mM potassium chloride, 1.8 mM calcium chloride, 1.0 mM magnesium chloride, 11.9 mM sodium hydrogen carbonate, 5.5 mM D-glucose, 5.0 mM HEPES, 0.36 mM sodium dihydrogen phosphate, pH 7.2). Each drug (2 μl) and 180 μl of the cell suspension were put to a 96-well multi-well plate (for chemiluminescence measurement, white type) previously kept at 37° C., and incubated at 37° C. for 10 minutes. After incubation, 20 μl of PAF (platelet-activating factor) (5×10^-6 M) and 20 μl of a luminol solution were added to it and immediately examined for its chemiluminescence (Luminoskan Labosystem). The chemiluminescence for 5 minutes were measured to calculate 50% inhibitory concentration (IC50: μM).

Another assay deals with rat mast cells. Briefly: Inhibitory action on degranulation of mast cells (histamine release from rat mast cells). Type of assay: cell-based. The note with it: Mast cell; rat peritoneal mast cells, anti-IgE antibody, 37° C. Here is the method:
Inhibitory action on degranulation of mast cells
(A) Preparation of mast cells
30 ml of mast cell buffer solution (150 mM sodium chloride, 3.7 mM potassium chloride, 3.0 mM disodium hydrogen phosphate, 3.5 mM sodium dihydrogen phosphate, 5.6 mM dextrose, pH 7.0) was injected into the abdomen of a rat(SD, male, 8 to 10 week-old), and intra peritoneal cavity cells were recovered and centrifuged at 800 rpm for 5 minutes, and then the abdomen infiltration cells were recovered as precipitates. The precipitated cells were further washed twice with the mast cell buffer solution, suspended again at a predetermined density, and used in the objective experiment.
(B) Inhibitory action on degranulation of mast cells (inhibitory action on histamine release from rat mast cells)
The mast cells obtained in the procedure in (A) above were suspended at 1×10^5 cells in the mast cell buffer solution and kept at 37° C. 2 μl of each drug and 200 μl of the cell suspension were added into a 1.5 ml test tube previously kept at 37° C. and incubated at 37° C. for 10 minutes. After incubation, 2 μl anti-IgE antibody (BETHYL Lab. Inc.) was added to it and further incubated at 37° C. for 15 minutes. After the end of the reaction, the reaction mixture was immediately cooled on ice and centrifuged at 4° C. at 4000 rpm for 5 minutes, and then the supernatant was stored. Histamine in the supernatant was modified with ortho-phthalaldehyde and measured by high performance liquid chromatography to determine 50% inhibitory concentration (IC50: μM).

For another assay, the target named is T2, dog chymase (Canis lupus familiaris, UniProt P21842).
T2 construct: 60 g dog heart was finely divided by scissors and a scalpel; from tissue; host or cells: dog heart
T2 sequence (P21842 22-249): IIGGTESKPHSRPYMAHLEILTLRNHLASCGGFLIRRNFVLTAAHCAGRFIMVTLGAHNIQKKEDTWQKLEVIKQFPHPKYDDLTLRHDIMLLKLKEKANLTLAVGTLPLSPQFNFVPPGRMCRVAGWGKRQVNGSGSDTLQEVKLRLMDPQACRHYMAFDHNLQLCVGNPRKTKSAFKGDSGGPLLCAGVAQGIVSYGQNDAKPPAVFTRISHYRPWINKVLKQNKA
Briefly: Inhibitory activity on dog chymase (angiotensin I as substrate). Type of assay: biochemical. As to conditions: pH 8.0, 37° C., 60 min, read-out: Dog Chymase (IC50: nM), 50% inhibitory concentration. The text has this: It is known that chymase is present in tissues of various animals, and its isolation and purification methods are described in Anal. Biochem., 137, 449 (1984) and FEBS Letters, 323, 119 (1993). In the present invention, chymase was purified by the methods described in these literatures, and the present compounds were examined for inhibitory activity on chymase, inhibitory action on activation of mast cells and eosinophils, and pharmacological action in animals. Hereinafter, specific methods are described. (c) Preparation of dog chymase 60 g dog heart was finely divided by scissors and a scalpel, suspended in 0.1 M phosphate buffer (pH 8.0), and disrupted by a Polytron homogenizer for 5 minutes to prepare a crude chymase enzyme solution. It was centrifuged at 22000×g for 15 minutes, and the precipitates were used as a chymase enzyme fraction. […] An active fraction decomposing the synthetic chymase substrate was recovered and concentrated and this product was used as a purified dog chymase in the following activity measurement. (D) Measurement of inhibitory activity on chymase (b) Measurement using angiotensin I as substrate The inhibitory activity on the human chymase and dog chymase was measured using angiotensin I (Peptide Kenkyusho) as substrate besides the above synthetic substrate. […] After the end of the reaction, produced angiotensin II was immediately measured by high performance liquid chromatography to determine the activity of the chymase to calculate 50% inhibitory concentration (IC50: nM). The test was conducted several times. Chymase was prepared for each test in the manner described above. The compounds examined were compounds prepared in the above-described examples. […] 50% Inhibitory concentration (IC50: nM) of each compound toward rat chymase, dog […] human […] Substrate: Succinyl leucyl leucyl valyl tyrosyl methylcoumarylamide (for rat […] angiotensin I (for human and dog chymase)

Another assay has as its target T3, human chymase (Homo sapiens, UniProt P23946).
T3 construct: 60 g human tonsils were finely divided by scissors and a scalpel; from tissue; host or cells: human tonsils
T3 sequence (P23946 22-247): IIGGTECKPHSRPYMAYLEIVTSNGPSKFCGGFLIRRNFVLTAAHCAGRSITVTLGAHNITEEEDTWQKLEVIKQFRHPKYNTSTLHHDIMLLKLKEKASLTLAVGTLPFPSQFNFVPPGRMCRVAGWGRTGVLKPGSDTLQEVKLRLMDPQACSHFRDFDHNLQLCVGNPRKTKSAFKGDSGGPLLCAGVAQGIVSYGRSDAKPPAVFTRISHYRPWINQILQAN
Briefly: Inhibitory activity on human chymase (angiotensin I as substrate). The class given is biochemical. An excerpt: It is known that chymase is present in tissues of various animals, and its isolation and purification methods are described in Anal. Biochem., 137, 449 (1984) and FEBS Letters, 323, 119 (1993). In the present invention, chymase was purified by the methods described in these literatures, and the present compounds were examined for inhibitory activity on chymase, inhibitory action on activation of mast cells and eosinophils, and pharmacological action in animals. Hereinafter, specific methods are described. 50 g rat tongue was finely divided by scissors and a scalpel, suspended in 0.1 M phosphate buffer (pH 8.0), and disrupted by a Polytron homogenizer for 5 minutes to prepare a crude chymase enzyme solution. […] The supernatant was applied to an octyl Sepharose 4B column (40×100 mm) previously equilibrated with 0.1 M phosphate buffer (pH 8.0) containing 2 M sodium chloride and 5% ammonium sulfate, and the protein was eluted with a linear concentration gradient of from 2 M to 0 M sodium chloride. An active fraction decomposing succinyl leucyl leucyl valyl tyrosyl methylcumarylamide (hereinafter referred to as the synthetic chymase substrate, a product of Peptide Kenkyusho) was recovered and concentrated and this product was used as a purified rat chymase in the following activity measurement. (B) Preparation of human chymase 60 g human tonsils were finely divided by scissors and a scalpel, suspended in 0.1 M phosphate buffer (pH 8.0), and A-disrupted by a Polytron homogenizer for 5 minutes to prepare a crude chymase enzyme solution. It was centrifuged at 22000×g for 30 minutes, and the precipitates were used as a chymase enzyme fraction. […] The supernatant was concentrated by an ultrafiltration membrane, then applied to […] column (6.0×300 mm), and eluted with 0.1 M phosphate buffer (pH 8.0). An active fraction decomposing the synthetic chymase substrate was recovered and concentrated and this product was used as a purified human chymase in the following activity measurement. (D) Measurement of inhibitory activity on chymase (b) Measurement using angiotensin I as substrate The inhibitory activity on the human chymase and dog chymase was measured using angiotensin I (Peptide Kenkyusho) as substrate besides the above synthetic substrate. […] After the end of the reaction, produced angiotensin II was immediately measured by high performance liquid chromatography to determine the activity of the chymase to calculate 50% inhibitory concentration (IC50: nM). The test was conducted several times. Chymase was prepared for each test in the manner described above. The compounds examined were compounds prepared in the above-described examples. […] 50% Inhibitory concentration (IC50: nM) of each compound toward rat chymase, dog […] human […] Substrate: Succinyl leucyl leucyl valyl tyrosyl methylcoumarylamide (for rat […] angiotensin I (for human and dog chymase)

The subject of another assay is other human proteases. Briefly: Inhibitory activity on other human proteases (summary). The class given is biochemical. Here is the method:
(E) Measurement of inhibitory activity on proteases other than chymase
The inhibitory activity of the present compounds on human elastase, human cathepsin G, human urokinase, human thrombin, human plasmin, and human factor Xa was determined using their corresponding synthetic substrates in the same manner as for chymase. All the above proteases were those commercially available from Boehringer Mannheim or purified by a combination of known methods. The synthetic substrates were those produced by Peptide Renkyusho. The synthetic substrates for the respective proteases are as follows.
The test was conducted several times. Chymase was prepared for each test in the manner described above. The compounds examined were compounds prepared in the above-described examples.

Each structure is given as a SMILES string.

In the case of `CN1CCN(C(=O)CCCC(=O)C(=O)C(Cc2cccc(F)c2)NC(=O)Cn2c(-c3ccccc3)ncc(N)c2=O)CC1` (stereo not drawn) [Compound 69], the IC50 was determined as 54 nM on rat chymase and 2.5 µM in the assay with guinea pig eosinophils.

On to `Nc1cnc(-c2ccccc2)n(CC(=O)NC(Cc2ccccc2)C(=O)C(=O)CCCN2CCOCC2)c1=O` (stereo not drawn) [Compound 71, 2-(5-Amino-6-oxo-2-phenyl-1,6-dihydropyrimidine-1-yl)-N-{2,3-dioxo-6-(4-morpholine-4-yl)-1-phenylmethyl}hexylacetamide], for which the figures for the IC50 with rat mast cells and with guinea pig eosinophils were 13 µM and 2.6 µM, respectively.

Take `O=C(Cn1c(-c2ccccc2)ncc(NS(=O)(=O)Cc2ccccc2)c1=O)NC(Cc1ccccc1)C(=O)C(=O)CCCOc1ccccn1` (stereo not drawn) [Compound 77, 2-(5-Benzylsulfonylamino-6-oxo-2-phenyl-1,6-dihydropyrimidine-1-yl)-N-{2,3-dioxo-1-phenylmethyl-6-(2-pyridyloxy)}hexylacetamide]: the IC50 on rat chymase came out at 48 nM; on dog chymase, 1.4 nM; on human chymase (substrate angiotensin I, pH 8.0, 37° C., 60 min, read-out: Human Chymase (IC50: nM), 50% inhibitory concentration), 7 nM. The “inhibitory activity on human chymase, in words” value at human chymase is given as “strong inhibitory activity on human chymase”. Besides, the “inhibitory activity on other human proteases, in words” value in the assay with other human proteases is reported as “no inhibitory activity on other human proteases”.
